Assay results: patent US20090247475A1, “METHODS AND COMPOSITIONS RELATING TO PHARMACOGENETICS OF DIFFERENT GENE VARIANTS IN THE CONTEXT OF IRINOTECAN-BASED THERAPIES” (The Regents of the University of California, priority 2004, published 2009)
Changes are numbered by the printed parent chain. Like-named read-outs stand apart in the source and are kept apart here.

How the values were obtained:
[1] = biological target: T1, OATP1B1 (Homo sapiens, UniProt Q9Y6L6); conditions: cited from earlier work
T1 sequence (Q9Y6L6 1-691): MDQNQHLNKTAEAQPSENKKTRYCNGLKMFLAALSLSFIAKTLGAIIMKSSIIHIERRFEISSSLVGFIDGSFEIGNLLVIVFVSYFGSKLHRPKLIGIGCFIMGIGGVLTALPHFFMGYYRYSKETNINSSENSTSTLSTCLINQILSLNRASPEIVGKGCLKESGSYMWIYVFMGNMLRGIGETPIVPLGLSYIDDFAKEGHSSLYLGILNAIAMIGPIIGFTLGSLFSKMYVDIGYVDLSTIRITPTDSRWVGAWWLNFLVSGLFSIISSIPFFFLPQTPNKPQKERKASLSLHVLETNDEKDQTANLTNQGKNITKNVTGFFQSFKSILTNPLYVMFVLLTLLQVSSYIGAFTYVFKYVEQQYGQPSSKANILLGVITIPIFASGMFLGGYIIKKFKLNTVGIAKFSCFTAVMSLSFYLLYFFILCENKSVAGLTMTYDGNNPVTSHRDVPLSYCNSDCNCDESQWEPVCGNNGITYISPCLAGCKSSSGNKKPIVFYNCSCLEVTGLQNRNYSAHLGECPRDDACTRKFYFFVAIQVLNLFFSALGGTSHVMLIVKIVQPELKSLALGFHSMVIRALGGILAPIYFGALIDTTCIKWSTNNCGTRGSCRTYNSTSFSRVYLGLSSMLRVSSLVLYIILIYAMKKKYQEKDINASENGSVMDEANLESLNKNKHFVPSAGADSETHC

[2] = Irinotecan pharmacokinetics (AUC, noncompartmental analysis) in cancer patients stratified by genotype
Source text: (§1) Sixty-four adults (48 Caucasians, 10 African-Americans, 4 Hispanics, and 2 others) with refractory solid tumors took part in the pharmacogenetic study.
(§2) After visual inspection of the graphical plots of AUC and ratios stratified by genotype, t test analysis was applied to the data showing the possible presence of an inter-genotype difference in irinotecan pharmacokinetics.
(§3) Two SNPs in SLCO1B1 [*1b (388A>G) and *5 (521T>C)] were also genotyped.

[3] = biological target: T2, SLCO1B1*15 (N130D and V174A) (Homo sapiens, UniProt Q9Y6L6, N130D/V174A); conditions: among the variants examined; cited from earlier work
T2 sequence (Q9Y6L6 1-691 N130D/V174A): T1 sequence (Q9Y6L6 1-691) with N130D, V174A

[4] = human, in vivo
Source text: as §1, §2, §3

[5] = early single agent trials; fraction of patients; cited from earlier work
[6] = cited from earlier work
[7] = OATP1B1*1a and three common variants

In the case of `CCc1c2c(nc3ccc(O)cc13)-c1cc3c(c(=O)n1C2)COC(=O)[C@]3(O)CC` [SN-38, 7-ethyl-10-hydroxycamptothecin], the “Transport by OATP1B1” value [1, 7] is given as “transport activity for SN-38 was observed”, the “Inhibition of SLCO1B1-mediated uptake of [(3)H]estrone-3-sulfate” value [1] is given as “significant inhibitory effect” and the “AUC in ABCC2 3972 TT patients compared to CT and CC patients” value ([2]; 350 mg/m^2 IV irinotecan, SN-38 and SN-38G analysed in 6/6 and 6/7 UGT1A1 genotype patients) is given as “No significant correlation”. The “Transport activity of SLCO1B1*15 variant” value [3] was “decreased transport activities”.
In the case of `CCc1c2c(nc3ccc(O[C@@H]4O[C@H](C(=O)O)[C@@H](O)[C@H](O)[C@H]4O)cc13)-c1cc3c(c(=O)n1C2)COC(=O)[C@]3(O)CC` [SN-38G, 10O-glucuronyl-SN-38], the “Transport by OATP1B1” value [1] is given as “not transported” and the “Effect of SLCO1B1*5 variant on patient exposure (AUC)” value [4] is given as “not affected”.
In the case of `C[C@]12CC[C@@H]3c4ccc(OS(=O)(=O)O)cc4CC[C@H]3[C@@H]1CCC2=O` [estrone-3-sulfate], the “Transport activity of SLCO1B1*15 variant” value [3] is given as “decreased transport activities”.
For `CCc1c2c(nc3ccc(OC(=O)N4CCC(N5CCCCC5)CC4)cc13)-c1cc3c(c(=O)n1C2)COC(=O)[C@]3(O)CC` [irinotecan, Irinotecan], the “Transport by OATP1B1” value [1, 7] is given as “not transported”, the “Effect of SLCO1B1*5 variant on patient exposure (AUC)” value [4] is given as “increase in irinotecan AUC” and the “Effect of SLCO1B1*1b allele on plasma disposition” value ([2]; human, in vivo) is given as “no effect”. The “Frequency of grade 3-4 diarrhea” value [5] was “about one third”.
For `CC[C@H](C)C(=O)O[C@H]1C[C@H](O)C=C2C=C[C@H](C)[C@H](CC[C@@H](O)C[C@@H](O)CC(=O)O)[C@H]21` [pravastatin], the “Mean pravastatin AUC0-12 higher compared to non-carriers” value ([6]; heterozygous carriers of *15B) is given as 93%, the “Mean pravastatin AUC0-12 higher compared to non-carriers” value ([6]; heterozygous carriers of *17) is given as 130% and the “Mean pravastatin AUC0-12 higher compared to reference genotype” value ([6]; subjects with SLCO1B1 -11187GA genotype) is given as 98%. The “Transport activity of SLCO1B1*15 variant” value [3] was “decreased transport activities”.
